Data from patent publication US10555987B2, “GHRH agonists for the treatment of ischemic disorders” (UNIVERSITY OF MIAMI, priority 2012, dated 2020).
Entries after “also recorded” stand apart in the source; their conditions may differ. Non-standard residues stand in square brackets, D forms with d. Residues, ends and D or L forms follow the SMILES beside them. *: point of attachment. Desaminotyrosyl = O=C(CCc1ccc(O)cc1)*; NMeY = CN[C@@H](Cc1ccc(O)cc1)C(=O)O; Agmatine = N=C(N)NCCCCN*; Nle = CCCC[C@H](N)C(=O)O; Orn = NCCC[C@H](N)C(=O)O; Abu = CC[C@H](N)C(=O)O

Assays:
[1] = tested on: myocardial infarction (Fisher-344 rats); assay: Immunostaining of heart tissue (pH3, c-kit, arterioles), rat MI model (Example 13); assay type: in vivo; details: for c-kit (positive cells in the heart) / phospho H3 (positive cells in the heart): 50 μg/kg s.c. twice daily for 4 weeks, mean ± SEM; for number of arterioles: isolectin / SMA22a co-staining of heart sections
Method: (§1) Myocardial infarction (MI) was induced by permanent ligation of the left coronary artery in female 6-month-old Fisher-344 rats. Animals were randomly assigned to receive placebo (DMSO+propylene glycol) or one of the GHRH-agonists (JI-38, MR-356/P-20356, MR-409/P-27409, all 50 μg/kg), starting 4 weeks post-MI. All treatment was given subcutaneously twice daily for 4 weeks.
(§2) Paraffin sections were deparaffinized and rehydrated by immersion in xylene followed by a graded series of ethanol. Antigen retrieval was performed by a heat-induced method with citrate buffer (Dako, Carpinteria, Calif.). After blocking with 10% normal donkey serum, sections were incubated with a primary antibody at 37° C. for 1 hour, followed by application of secondary antibody. Omission of the primary antibodies on parallel sections was used as negative control. Nuclei were counterstained with DAPI (Invitrogen, Carlsbad, Calif.). The total numbers of positively-stained cells (c-kit, CD45, phospho-histone H3 [pH3]) were quantified per slide to calculate the number of cells per section on each sample. Morphometric analysis was performed using Adobe Photoshop CS3 (San Jose, Calif.).
Heart sections were co-stained with isolectin (endothelial cell marker) and vascular smooth muscle (SMA22a) to identify arterioles which play a crucial role in cardiac repair. […] An inverse correlation between number of arterioles and infarct size was observed (FIG. 5C).

[2] = tested on: myocardial infarction (Fisher-344 rats); assay: Morphometric analysis of infarct size, rat MI model (Example 13); assay type: in vivo; details: 50 μg/kg s.c. twice daily for 4 weeks; mean ± SEM
Method: as §1
Rat hearts were processed using routine histological procedures. Samples were fixed in formalin.
as §2

[3] = tested on: myocardial infarction (Fischer 344 rats); assay: Echocardiography in rat MI model, treatment from 2 hours post-surgery (Example 14); assay type: in vivo; details: echocardiographic measurements at day 2 post-MI
Method: (§3) MI was induced in female 6-month-old Fischer 344 rats by permanent ligation of left ventricular (LV) anterior descending coronary artery. Animals were randomly assigned to receive placebo or one of the following GHRH agonists (MR-356, MR-361, MR-367, MR-403, MR-404, MR-409 and MR-502) starting 2 hours post-surgery. All treatment (50 μg/kg) was given subcutaneously twice daily for 4 weeks. The Institutional Animal Care and Use committee of the University of Miami approved all protocols and experimental procedures.
Longitudinal evaluation of LV remodeling was obtained by echocardiographic measurements between baseline and 4 weeks following MI. Echocardiographic assessments were performed in anesthetized rats (1-2% isoflurane inhalation) using a Vevo-770 echocardiogram (Visual Sonics Inc., Toronto, Ontario, Canada) equipped with 25 MHz transducer. Cardiac dimensions were recorded from M-mode images using averaged measurements from 3 to 5 consecutive cardiac cycles. LV end-diastolic and end-systolic volumes and ejection fraction (EF) were calculated from bi-dimensional long-axis parasternal views taken through the infarcted area. All images were analyzed using Vevo 770 3.0.0 software (Visual Sonics).

[4] = tested on: myocardial infarction (Fisher-344 rats); assay: Echocardiography in rat myocardial infarction model, treatment from 4 weeks post-MI (Example 13); assay type: in vivo; details: mean ± SEM; for EF (4 Weeks): 50 μg/kg s.c. twice daily for 4 weeks; for EF (Baseline): ejection fraction at baseline
Method: as §1
Echocardiographic measurements were obtained at baseline, 2 days, 1, 2 and 4 weeks. Echocardiographic assessments were performed in anesthetized rats (2% isoflurane inhalation) using a Vevo-770 echocardiogram (Visual Sonics Inc., Toronto, Ontario, Canada) equipped with a 17.5-MHz transducer. Cardiac dimensions: LV end diastolic (LVEDD), end systolic (LVESD) diameters and fractional shortening (FS) were recorded from M-mode images using averaged measurements from 3 to 5 consecutive cardiac cycles according to the American Society of Echocardiography. Ejection fraction (EF) was calculated from bi-dimensional long-axis parasternal views taken through the infarcted area. All images were analyzed using Vevo 770 3.0.0 software (Visual Sonics Inc., Toronto, Ontario, Canada).

[5] = tested on: myocardial infarction (Fischer 344 rats); assay: Morphometric analysis, percentage of infarcted myocardium (Example 14); assay type: in vivo, rat; details: vs. placebo, FIG. 8
Method: as §3
Slides were prepared with H&E and Masson's trichrome stain to assess cardiac structure and the presence and extent of myocardial scar, respectively. The percentage of infarcted myocardium was calculated.

GH release [6] = assay: GH releasing potency in vivo, intravenous administration (Example 14, Table 13); parameters: species or system rat; details: i.v.; for Relative potency, 5 min / Relative potency, 15 min: JI-38 = 1; for Serum GH level at selected time after injection (ng/ml), 0 min / Serum GH level at selected time after injection (ng/ml), 5 min / Serum GH level at selected time after injection (ng/ml), 15 min: dose 1 μg/kg, mean ± SEM
How it was run: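 Potency is expressed relative to GHRH(1-29)NH2 and JI-38 (each = 1), via equivalent GHRH(1-29)NH2 dose read from a standard curve. Peptides in 5% mannitol given i.v. or s.c. to anaesthetised male Sprague-Dawley rats (200-250 g); serum GH measured by ELISA at selected times.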

GH release [7] = assay: In vivo endocrine activity, GH release after intravenous administration (Table 8); details: rat, i.v. injection

Row | SMILES | c-kit (positive cells in the heart) [1] | phospho H3 (positive cells in the heart) [1] | number of arterioles [1] | MI size (%) [2] [%] | EF at day 2 post-MI [3] | EF (4 Weeks) [4] [%] | EF (Baseline) [4] [%] | infarct size (MI %) [5] | Relative potency, 5 min (GH release [6]) | Relative potency, 15 min (GH release [6]) | Serum GH level at selected time after injection (ng/ml), 0 min (GH release [6]) [ng/mL] | Serum GH level at selected time after injection (ng/ml), 5 min (GH release [6]) [ng/mL] | Serum GH level at selected time after injection (ng/ml), 15 min (GH release [6]) [ng/mL] | infarct size (MI %) ([5]; listed as MR-356) | GH releasing potency in vivo relative to JI-38 (=1) (GH release [7]; 5 min after) | GH releasing potency in vivo relative to JI-38 (=1) (GH release [7]; 15 min after) | GH releasing potency in vivo relative to JI-38 (=1) (GH release [7]; 30 min after)
1 | CCCC[C@H](NC(=O)[C@@H](NC(=O)[C@H](CC(=O)O)NC(=O)[C@H](CCC(N)=O)NC(=O)[C@H](CC(C)C)NC(=O)[C@H](CC(C)C)NC(=O)[C@H](CCCN)NC(=O)[C@H](CCCNC(=N)N)NC(=O)[C@H](C)NC(=O)[C@H](CO)NC(=O)[C@H](CC(C)C)NC(=O)[C@H](CCC(N)=O)NC(=O)[C@H](CC)NC(=O)[C@H](CC(C)C)NC(=O)[C@@H](NC(=O)[C@H](CCCN)NC(=O)[C@H](CCCNC(=N)N)NC(=O)[C@H](Cc1ccc(O)cc1)NC(=O)[C@H](CO)NC(=O)[C@H](CCC(N)=O)NC(=O)[C@@H](NC(=O)[C@H](Cc1ccccc1)NC(=O)[C@@H](NC(=O)[C@H](C)NC(=O)[C@H](CC(=O)O)NC(=O)[C@H](C)NC(=O)CCc1ccc(O)cc1)[C@@H](C)CC)[C@@H](C)O)C(C)C)[C@@H](C)CC)C(=O)N[C@@H](CC(=O)O)C(=O)NCCCCNC(=N)N [JI-38, [Dat^1, Gln^8, Orn^12,21, Abu^15, Nle^27, Asp^28, Agm^29]hGHRH(1-29)NH2, reference compound] (Desaminotyrosyl-ADAIFTQSYR[Orn]VL[Abu]QLSAR[Orn]LLQDI[Nle]D-Agmatine) | 53 ± 6.7 | 71 ± 9.2 | significantly increased | 42 ± 1.3 | slightly better preserved | 47 ± 2.4 | 88 ± 1.2 | significantly attenuated; also recorded: substantial reductions | 1 | 1 | 48.0 ± 10.4 | 538 ± 58.3 | 198 ± 18.1 |  |  |  | 
2 | CCCC[C@H](NC(=O)[C@@H](NC(=O)[C@H](CC(=O)O)NC(=O)[C@H](CCC(N)=O)NC(=O)[C@H](CC(C)C)NC(=O)[C@H](CC(C)C)NC(=O)[C@H](CCCN)NC(=O)[C@H](CCCNC(=N)N)NC(=O)[C@H](C)NC(=O)[C@H](CO)NC(=O)[C@H](CC(C)C)NC(=O)[C@H](CCC(N)=O)NC(=O)[C@H](CC)NC(=O)[C@H](CC(C)C)NC(=O)[C@@H](NC(=O)[C@H](CCCN)NC(=O)[C@H](CCCNC(=N)N)NC(=O)[C@H](Cc1ccc(O)cc1)NC(=O)[C@H](CO)NC(=O)[C@H](CCC(N)=O)NC(=O)[C@@H](NC(=O)[C@H](Cc1ccccc1)NC(=O)[C@@H](NC(=O)[C@H](C)NC(=O)[C@H](CC(=O)O)NC(=O)[C@H](C)NC(=O)[C@H](Cc1ccc(O)cc1)NC)[C@@H](C)CC)[C@@H](C)O)C(C)C)[C@@H](C)CC)C(=O)N[C@@H](CC(=O)O)C(=O)NCCCCNC(=N)N [Peptide P-20356, [N—Me-Tyr^1, Gln^8, Orn^12, Abu^15, Orn^21, Nle^27, Asp^28, Agm^29]hGHRH(1-29) NH2] (H-[NMeY]ADAIFTQSYR[Orn]VL[Abu]QLSAR[Orn]LLQDI[Nle]D-Agmatine) | 59 ± 7.1 | 65 ± 9.3 | significantly increased | 37 ± 2.5 | slightly better preserved | 51 ± 2.7 | 88 ± 0.6 |  | 1.17 | 1.26 | 37.8 ± 5.7 | 632 ± 110 | 250 ± 58.1 | significantly attenuated; also recorded: substantial reductions | 1.07 | 0.91 | 1.22
